29 compounds from US8822449B2, “Substituted aminoindanes and analogs thereof, and the pharmaceutical use thereof” (Sanofi, priority 2008, dated 2014) can be followed below.

A value given as a limit tells only on which side of the number the result lay.

In this assay the target is T1, sodium-proton exchanger of subtype 3 (NHE3) (Homo sapiens, UniProt P48764).
T1 construct: expressed in transfected cells
T1 sequence (P48764 26-834): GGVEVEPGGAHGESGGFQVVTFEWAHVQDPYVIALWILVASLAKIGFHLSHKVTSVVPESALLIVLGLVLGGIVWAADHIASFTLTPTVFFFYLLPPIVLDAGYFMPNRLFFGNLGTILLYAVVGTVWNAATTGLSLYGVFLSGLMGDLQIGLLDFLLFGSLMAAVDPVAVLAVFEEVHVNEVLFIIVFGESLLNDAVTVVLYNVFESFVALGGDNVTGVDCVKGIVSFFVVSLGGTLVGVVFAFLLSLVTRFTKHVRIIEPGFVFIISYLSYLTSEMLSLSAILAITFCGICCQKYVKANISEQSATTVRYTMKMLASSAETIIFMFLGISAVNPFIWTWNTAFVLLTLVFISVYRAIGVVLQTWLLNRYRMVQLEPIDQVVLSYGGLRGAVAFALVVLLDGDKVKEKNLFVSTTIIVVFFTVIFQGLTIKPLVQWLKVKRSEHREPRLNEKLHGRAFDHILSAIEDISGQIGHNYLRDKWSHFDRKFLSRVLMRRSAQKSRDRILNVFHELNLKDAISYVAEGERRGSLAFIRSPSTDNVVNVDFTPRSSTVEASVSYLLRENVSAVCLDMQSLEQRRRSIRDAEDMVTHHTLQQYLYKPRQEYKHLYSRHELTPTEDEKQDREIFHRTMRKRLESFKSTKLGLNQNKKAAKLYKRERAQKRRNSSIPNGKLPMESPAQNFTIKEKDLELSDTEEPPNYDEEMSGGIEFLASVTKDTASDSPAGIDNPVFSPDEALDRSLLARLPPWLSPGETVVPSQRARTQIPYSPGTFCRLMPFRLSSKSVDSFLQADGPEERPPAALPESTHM
Briefly: Recovery of intracellular pH (pHi) after acidification in LAP1 cells stably expressing NHE3 (BCECF fluorescence, FLIPR). The conditions noted are these: LAP1 cells stably expressing NHE3; pH recovery after acidification; range 1 is % inhibition at 10 μM; read-out: Activity range (inhibitory effect on NHE3). Type of assay: cell-based.
Method: In this assay, the recovery of the intracellular pH (pHi) of LAP1 cells which stably express the sodium-proton exchanger of subtype 3 (NHE3) after acidification was determined. The recovery occurs even under bicarbonate-free conditions with functional NHE3. To this end, the pHi was determined using the pH-sensitive fluorescent dye BCECF (Molecular Probes, Eugene, Oreg., USA, employing the precursors BCECF-AM). The cells were initially incubated with BCECF (5 μM BCECF-AM) in NH4Cl buffer (NH4Cl buffer: 115 mM cholineCl, 20 mM NH4Cl, 5 mM KCl, 1 mM CaCl2, 1 mM MgCl2, 20 mM Hepes, 5 mM glucose, a pH of 7.4 was adjusted with 1 M KOH). The intracellular acidification was induced by washing the cells incubated in NH4Cl buffer with NH4Cl-free buffer (133.8 mM choline chloride, 4.7 mM KCl, 1.25 mM CaCl2, 1.25 mM MgCl2, 0.97 mM K2HPO4, 0.23 mM KH2PO4, 5 mM Hepes, 5 mM glucose, a pH of 7.4 was adjusted with 1 M KOH). After the washing step, 90 μl of the NH4Cl-free buffer were left on the cells. The pH recovery was started by adding 90 μl of Na^+-containing buffer (133.8 mM NaCl, 4.7 mM KCl, 1.25 mM CaCl2, 1.25 mM MgCl2, 0.97 mM Na2HPO4, 0.23 mM NaH2PO4, 10 mM Hepes, 5 mM glucose, a pH of 7.4 was adjusted with 1 M NaOH) in a measuring instrument (FLIPR, “Fluorometric Imaging Plate Reader”, Molecular Devices, Sunnyvale, Calif., USA). The BCECF fluorescence was determined with an excitation wavelength of 498 nm and the FLIPR emission filter 1 (bandpass from 510 to 570 nm). The subsequent changes in fluorescence as a measure of pH recovery were recorded for two minutes. To calculate the NHE3-inhibitory power of the tested substances, the cells were initially investigated in buffers with which complete or absolutely no pH recovery took place. For complete pH recovery (100%), the cells were incubated in Na^+-containing buffer (see above), and to determine the 0% value were incubated in Na^+-free buffer (see above). The substances to be tested were made up in Na^+-containing buffer. The recovery of the intracellular pH at each tested concentration of a substance was expressed as percent of the maximum recovery.
The IC50 of the respective substance for NHE3 was calculated from the percentages of pH recovery using the program XLFit (idbs, Surrey, UK).
As for `Cc1nnc(C)n1-c1ccc(O[C@H]2c3cc(Cl)cc(Cl)c3C[C@@H]2N(C)CCN(C)C)c(F)c1` [Example 726, N-{trans-(1S,2S)-4,6-Dichloro-1-[4-(3,5-dimethyl-[1,2,4]triazol-4-yl)-2-fluoro-phenoxy]-indan-2-yl}-N,N′,N′-trimethyl-ethane-1,2-diamine], the IC50 is < 1 µM. For the compound `Cc1nc2cc(O[C@H]3c4cc(Cl)cc(Cl)c4C[C@@H]3N3CCNCC3)ccc2s1` (racemic) [Example 572, 5-(rac-trans-(1,2)-4,6-dichloro-2-piperazin-1-ylindan-1-yloxy)-2-methylbenzothiazole], the IC50 fell in the range of 1 to 10 µM. For `NCC1CCN([C@@H]2Cc3ccccc3[C@H]2Oc2ccc(NC(=O)OCc3ccccc3)cc2)C1` (mixture of isomers) [Example 240, {4-[rac-trans-(1,2)-2-(3-aminomethylpyrrolidin-1-yl)indan-1-yloxy]phenyl}carbamic acid benzyl ester], the IC50 lay within 1 to 10 µM. As for `CC(=O)Nc1cccc(O[C@H]2c3ccccc3C[C@@H]2N2CCC[C@@H](N)C2)c1` [Example 691, N-{3-[trans-(1S,2S)-2-((R)-3-aminopiperidin-1-yl)indan-1-yloxy]phenyl}acetamide], the IC50 was < 1 µM. Turning to `CS(=O)(=O)c1ccc(O[C@@H]2c3ccccc3C[C@H]2NC2CCCCCC2)cc1` (racemic) [Example 711, Cycloheptyl-[rac-trans-(1,2)-1-(4-methanesulfonyl-phenoxy)-indan-2-yl]-amine], the inhibition at 10 µM is 20 to 50%. Same read-out and setting: the figure for `N[C@@H]1CCCN([C@H]2CCc3ccccc3[C@@H]2Oc2ccc(C(F)(F)F)cc2)C1` (racemic) [Example 77, (R)-1-[rac-trans-(1,2)-1-(4-trifluoromethylphenoxy)-1,2,3,4-tetrahydronaphthalen-2-yl]piperidin-3-ylamine] is 20 to 50%.

For the compound `CC(C)c1nc(C(C)(C)C)cn1-c1ccc(O[C@H]2c3cc(Cl)cc(F)c3C[C@@H]2N2CC[C@@H](O)C2)cc1` [Example 724, (R)-1-{trans-(1S,2S)-1-[4-(4-tert-Butyl-2-isopropyl-imidazol-1-yl)-phenoxy]-6-chloro-4-fluoro-indan-2-yl}-pyrrolidin-3-ol], the inhibition at 10 µM was in the range of 20 to 50%. Turning to `O=S1(=O)CCCN1c1cccc(O[C@H]2c3ccccc3C[C@@H]2N2CCCC2)c1` (racemic) [Example 363, 2-[3-(rac-trans-(1,2)-2-pyrrolidin-1-ylindan-1-yloxy)phenyl]isothiazolidine 1,1-dioxide], the IC50 was in the range of 1 to 10 µM. Turning to `CS(=O)(=O)c1ccccc1O[C@H]1c2ccccc2CC[C@@H]1N1CCC[C@H](N)C1` (racemic) [Example 156, (S)-1-[rac-trans-(1,2)-1-(2-methanesulfonylphenoxy)-1,2,3,4-tetrahydronaphthalen-2-yl]piperidin-3-ylamine], the inhibition at 10 µM lay within 20 to 50%. On to `O=C1COC(=O)N1c1ccc(F)c(O[C@H]2c3cc(Cl)cc(Cl)c3C[C@@H]2N2CC[C@@H](O)C2)c1` [Example 418, 3-{3-[(1S,2S)-4,6-dichloro-2-((R)-3-hydroxypyrrolidin-1-yl)indan-1-yloxy]-4-fluorophenyl}oxazolidine-2,4-dione], for which the IC50 is 1 to 10 µM. As for `Fc1ccc(O[C@H]2c3cc(Cl)cc(Cl)c3C[C@@H]2N2CCC2)c2ncccc12` [Example 591, 8-((1S,2S)-2-azetidin-1-yl-4,6-dichloroindan-1-yloxy)-5-fluoroquinoline], the inhibition at 10 µM was in the range of 20 to 50%. As for `O=C1CCCN1c1ccc(Cl)c(O[C@H]2c3cc(Cl)cc(Cl)c3C[C@@H]2N2CC[C@@H](O)C2)c1` [Example 336, 1-{4-chloro-3-[(1S,2S)-4,6-dichloro-2-((R)-3-hydroxypyrrolidin-1-yl)indan-1-yloxy]phenyl}pyrrolidin-2-one], the IC50 is < 1 µM.

Regarding `N[C@@H]1CCCN([C@@H]2Cc3ccccc3[C@H]2Oc2ccc(Cl)nc2)C1` (racemic) [Example 82, (R)-1-[rac-trans-(1,2)-1-(6-chloropyridin-3-yloxy)indan-2-yl]piperidin-3-ylamine], the IC50 lay in the range of 1 to 10 µM. Turning to `CC(=O)Nc1cccc(O[C@H]2c3cc(Cl)cc(Cl)c3C[C@@H]2N2CCC[C@@H](N)C2)c1` [Example 690, N-{3-[trans-(1S,2S)-2-((R)-3-aminopiperidin-1-yl)-4,6-dichloroindan-1-yloxy]phenyl}acetamide], the IC50 was < 1 µM. As for `NS(=O)(=O)c1ccc(O[C@H]2c3ccccc3C[C@@H]2NCc2ccccc2)c(F)c1` (racemic) [Example 459, 4-(2-benzylaminoindan-1-yloxy)-3-fluorobenzenesulfonamide], the inhibition at 10 µM is 20 to 50%.

Regarding `CC(=O)Nc1cccc(O[C@H]2c3cc(Cl)cc(Cl)c3C[C@@H]2N2CCNCC2)c1` (racemic) [Example 647, N-[3-(rac-trans-(1,2)-4,6-dichloro-2-piperazin-1-ylindan-1-yloxy)phenyl]acetamide], the IC50 is 1 to 10 µM.

Consider `CS(=O)(=O)c1ccc(O[C@H]2c3cc(Cl)cc(Cl)c3C[C@@H]2N2CCCNCC2)cc1` [Example 298, 1-[trans-(1S,2S)-4,6-dichloro-1-(4-methanesulfonylphenoxy)indan-2-yl]-[1,4]diazepane], for which the IC50 is < 1 µM. `Cc1nnc(C)n1-c1ccc(O[C@H]2c3cc(Cl)cc(Cl)c3C[C@@H]2NC2CCCC2)c(F)c1` [Example 746, Cyclopentyl-{trans-(1S,2S)-4,6-dichloro-1-[4-(3,5-dimethyl-[1,2,4]triazol-4-yl)-2-fluoro-phenoxy]-indan-2-yl}-amine]: the IC50 was < 1 µM. Take `CS(=O)(=O)c1ccc(O[C@H]2c3cc(F)ccc3C[C@@H]2N2CCN(CC#N)CC2)cc1` (racemic) [Example 242, {4-[rac-trans-(1,2)-6-fluoro-1-(4-methanesulfonylphenoxy)indan-2-yl]piperazin-1-yl}acetonitrile]: the inhibition at 10 µM is 20 to 50%. `O=S(=O)(NCCC(F)(F)F)c1ccc(O[C@H]2c3ccccc3C[C@@H]2N2CCCC2)cc1` (racemic) [Example 470, 4-(rac-trans-(1,2)-2-pyrrolidin-1-ylindan-1-yloxy)-N-(3,3,3-trifluoropropyl)benzenesulfonamide]: the IC50 is 1 to 10 µM. The same measure, in the same setting: then `CC(=O)Nc1cccc(O[C@H]2c3ccccc3C[C@@H]2N2CCC[C@@H](NCCF)C2)c1` [Example 631, N-(3-{trans-(1S,2S)-2-[(R)-3-(2-fluoroethylamino)piperidin-1-yl]indan-1-yloxy}phenyl)-acetamide], with < 1 µM. Consider `CS(=O)(=O)c1ccc(O[C@H]2c3ccccc3C[C@@H]2N2CCCC2)cc1Cl` (racemic) [Example 268, 1-[rac-trans-(1,2)-1-(3-chloro-4-methanesulfonylphenoxy)indan-2-yl]pyrrolidine], for which the inhibition at 10 µM was in the range of 20 to 50%. `C[C@@H]1CN([C@H]2Cc3c(Cl)cc(Cl)cc3[C@@H]2Oc2ccc(S(C)(=O)=O)cc2)C[C@H](C)N1` [Example 21, (3R,5S)-1-[trans-(1S,2S)-4,6-dichloro-1-(4-methanesulfonylphenoxy)indan-2-yl]-3,5-dimethylpiperazine]: the IC50 was < 1 µM. Same read-out and setting: then `Cc1cc(=O)cc(C)n1-c1ccc(O[C@H]2c3cc(Cl)cc(Cl)c3C[C@@H]2N2CC[C@@H](O)C2)c(F)c1` [Example 324, 1-{4-[(1S,2S)-4,6-dichloro-2-((R)-3-hydroxypyrrolidin-1-yl)indan-1-yloxy]-3-fluorophenyl}-2,6-dimethyl-1H-pyridin-4-one], with < 1 µM.

Regarding `CCc1nnc(C(C)C)n1-c1ccc(O[C@H]2c3cc(Cl)cc(Cl)c3C[C@@H]2N2CC[C@@H](O)C2)cc1` [Example 716, (R)-1-{trans-(1S,2S)-4,6-Dichloro-1-[4-(3-ethyl-5-isopropyl-[1,2,4]triazol-4-yl)-phenoxy]-indan-2-yl}-pyrrolidin-3-ol], the IC50 is < 1 µM.

As to `CN(C)Cc1ccc(O[C@H]2c3ccccc3CC[C@@H]2N2CCC[C@@H](N)C2)cc1` (racemic) [Example 67, (R)-1-[rac-trans-(1,2)-1-(4-dimethylaminomethylphenoxy)-1,2,3,4-tetrahydronaphthalen-2-yl]piperidin-3-ylamine], the inhibition at 10 µM was in the range of 20 to 50%. Consider `N#Cc1ccc(O[C@H]2c3ccccc3CC[C@@H]2N2CCC[C@@H](N)C2)cc1` (racemic) [Example 516, 4-[rac-trans-(1,2)-2-((R)-3-aminopiperidin-1-yl)-1,2,3,4-tetrahydronaphthalen-1-yloxy]benzonitrile], for which the IC50 is < 1 µM. As to `CCN(CC)[C@@H]1Cc2ccccc2[C@H]1Oc1cccc(NC(C)=O)c1` (racemic) [Example 637, N-[3-(rac-trans-(1,2)-2-diethylaminoindan-1-yloxy)phenyl]acetamide], the IC50 fell in the range of 1 to 10 µM. `O=C1CCC(=O)N1c1ccc(O[C@H]2c3cc(Cl)cc(F)c3C[C@@H]2NC2CCCC2)c(F)c1` [Example 752, 1-[4-(trans-(1S,2S)-6-Chloro-2-cyclopentylamino-4-fluoro-indan-1-yloxy)-3-fluoro-phenyl]-pyrrolidine-2,5-dione]: the IC50 was in the range of 1 to 10 µM.
